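Tested at 5 concentrations; 48 h exposure; 96-well plates; endpoints linearly interpolated, else capped at highest concentration. GI50 = concentration required for 50% inhibition of growth.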 Activity calls are given as the source filed them. No stated cut-off is given here; in the data, active = GI50 up to about 1.1 µM and inactive = higher.
Legend:
Assay in all cases: growth of human tumour cells (NCI), 48 h
UO-31 = tested on: UO-31
CAKI-1 = tested on: CAKI-1
MOLT-4 = tested on: MOLT-4
CCRF-CEM = tested on: CCRF-CEM
SK-MEL-2 = tested on: SK-MEL-2
OVCAR-3 = tested on: OVCAR-3
RXF 393 = tested on: RXF 393
EKVX = tested on: EKVX
SK-MEL-28 = tested on: SK-MEL-28
TK-10 = tested on: TK-10
MDA-MB-435 = tested on: MDA-MB-435
HOP-92 = tested on: HOP-92
786-0 = tested on: 786-0
NCI-H23 = tested on: NCI-H23
LOX IMVI = tested on: LOX IMVI
SN12C = tested on: SN12C
SF-295 = tested on: SF-295
SF-539 = tested on: SF-539
NCI-H226 = tested on: NCI-H226
NCI-H522 = tested on: NCI-H522

SMILES | GI50 (UO-31) | GI50 (CAKI-1) | GI50 (MOLT-4) | GI50 (CCRF-CEM) | GI50 (SK-MEL-2) | GI50 (OVCAR-3) | GI50 (RXF 393) | GI50 (EKVX) | GI50 (SK-MEL-28) | GI50 (TK-10) | GI50 (MDA-MB-435) | GI50 (HOP-92) | GI50 (786-0) | GI50 (NCI-H23) | GI50 (LOX IMVI) | GI50 (SN12C) | GI50 (SF-295) | GI50 (SF-539) | GI50 (NCI-H226) | GI50 (NCI-H522)
O=C(O)CNc1ncc2c(n1)-c1ccccc1OC2 | > 100 µM (inactive) | > 100 µM (inactive) | > 100 µM (inactive) | > 100 µM (inactive) | > 100 µM (inactive) | > 100 µM (inactive) | > 100 µM (inactive) | > 100 µM (inactive) | > 100 µM (inactive) | > 100 µM (inactive) | > 100 µM (inactive) | > 100 µM (inactive) | > 100 µM (inactive) | > 100 µM (inactive) | > 100 µM (inactive) | > 100 µM (inactive) | > 100 µM (inactive) | > 100 µM (inactive) |  | 
CC(=O)O[C@H]1C(=O)[C@@]2(C)C([C@H](OC(=O)c3ccccc3)[C@]3(O)C[C@H](OC(=O)[C@H](O)[C@@H](NC(=O)c4ccc(Cl)cc4)c4ccccc4)C(C)=C1C3(C)C)C1(OC(C)=O)CO[C@@H]1C[C@@H]2O (some centres not stated) | 11.1 µM (inactive) | 3.06 µM (inactive) | 21.3 µM (inactive) | < 0.01 µM (active) | 0.0274 µM (active) | 0.0346 µM (active) | 1.02 µM (active) | 9.2 µM (inactive) | 0.114 µM (active) | 0.661 µM (active) | 0.00507 µM (active) |  | 0.123 µM (active) | 0.0738 µM (active) | < 0.01 µM (active) | 0.182 µM (active) | 0.6 µM (active) | 0.0689 µM (active) | 0.173 µM (active) | 0.0775 µM (active)
CC1(O)CC23CC1CCC2(C)C12CCCC(C)(C(=O)O1)C2CC3O (configuration not stated) | > 100 µM (inactive) | > 100 µM (inactive) |  | > 100 µM (inactive) | > 100 µM (inactive) |  |  | > 100 µM (inactive) | > 100 µM (inactive) | > 100 µM (inactive) | > 100 µM (inactive) | > 100 µM (inactive) | > 100 µM (inactive) | > 100 µM (inactive) | > 100 µM (inactive) | > 100 µM (inactive) | > 100 µM (inactive) | > 100 µM (inactive) | > 100 µM (inactive) | > 100 µM (inactive)
Oc1ccc(/C=N/NC(=S)Nc2cccnc2)nc1 | 2.78 µM (inactive) | 20.7 µM (inactive) | 2.8 µM (inactive) | 3.27 µM (inactive) | 7.08 µM (inactive) | 1.07 µM (active) |  | 12.6 µM (inactive) | 6.18 µM (inactive) |  | 5.9 µM (inactive) | 5.38 µM (inactive) | 8.43 µM (inactive) | 8.15 µM (inactive) | 3.26 µM (inactive) | 6.93 µM (inactive) | 19.9 µM (inactive) | 4.49 µM (inactive) | 33.3 µM (inactive) | 1.97 µM (inactive)
Cc1cc2c(cc1Cl)SC(NNCCO)=NS2(=O)=O | > 100 µM (inactive) | > 100 µM (inactive) | > 100 µM (inactive) | > 100 µM (inactive) | > 100 µM (inactive) |  | > 100 µM (inactive) | > 100 µM (inactive) | > 100 µM (inactive) | > 100 µM (inactive) | > 100 µM (inactive) | > 100 µM (inactive) | > 100 µM (inactive) | > 100 µM (inactive) | > 100 µM (inactive) |  | > 100 µM (inactive) | > 100 µM (inactive) | > 100 µM (inactive) | 
COc1cccc(Nc2nc(-c3cccs3)nc3cc(OC)c(OC)cc23)c1 | 51.8 µM (inactive) | 29 µM (inactive) | 53.6 µM (inactive) |  | 35.8 µM (inactive) | 24.3 µM (inactive) |  | 35.8 µM (inactive) | 31.5 µM (inactive) | 33.4 µM (inactive) | 31.3 µM (inactive) | 25 µM (inactive) | 21.9 µM (inactive) | 32.4 µM (inactive) |  | 21.3 µM (inactive) | 23.4 µM (inactive) | 20.9 µM (inactive) | 37.6 µM (inactive) | 18.9 µM (inactive)
Cc1cc(C)n2c(nc3ccccc32)c1C#N | > 100 µM (inactive) | > 100 µM (inactive) | 93.8 µM (inactive) | > 100 µM (inactive) | > 100 µM (inactive) | > 100 µM (inactive) | > 100 µM (inactive) | > 100 µM (inactive) | > 100 µM (inactive) | > 100 µM (inactive) | > 100 µM (inactive) | 22.4 µM (inactive) | > 100 µM (inactive) | > 100 µM (inactive) | > 100 µM (inactive) | > 100 µM (inactive) | > 100 µM (inactive) | > 100 µM (inactive) | > 100 µM (inactive) | 
CCc1ccccc1NC(=O)C(=O)CC(=O)c1sc(Nc2ccccc2Cl)nc1C | 32.7 µM (inactive) | 46.1 µM (inactive) | 14.9 µM (inactive) | 18 µM (inactive) | 24.4 µM (inactive) | 19.5 µM (inactive) | 24.9 µM (inactive) | 52.4 µM (inactive) | 36 µM (inactive) | 59.6 µM (inactive) | 25.6 µM (inactive) |  | 27.7 µM (inactive) | 30.3 µM (inactive) | 19.7 µM (inactive) | 42.7 µM (inactive) | 28.2 µM (inactive) | 24.4 µM (inactive) | 29 µM (inactive) | 18.1 µM (inactive)
Nc1ccc2nc(-c3cccc(C(F)(F)F)c3)cc(O)c2c1 | 37.4 µM (inactive) | 29.6 µM (inactive) | 40.4 µM (inactive) | 28.8 µM (inactive) |  |  |  | 44.7 µM (inactive) | 53.5 µM (inactive) | 58.2 µM (inactive) | 20.3 µM (inactive) | > 100 µM (inactive) | 44.7 µM (inactive) | 54.6 µM (inactive) | 51.9 µM (inactive) | 61.8 µM (inactive) |  | 19.6 µM (inactive) |  | 61.8 µM (inactive)
Cc1ccc2c(c1)-c1c(C#N)c(N)nc(-c3ccccc3)c1CCS2(=O)=O | 13.4 µM (inactive) | 10.5 µM (inactive) | 7.53 µM (inactive) | 1.23 µM (inactive) | > 29.2 µM (inactive) | 5.47 µM (inactive) |  | 18.7 µM (inactive) | 11.8 µM (inactive) | > 100 µM (inactive) | 1.72 µM (inactive) | 56.5 µM (inactive) | 6.38 µM (inactive) | 8.65 µM (inactive) | 12.6 µM (inactive) | 17.7 µM (inactive) | 5.47 µM (inactive) | 6.35 µM (inactive) | 5.36 µM (inactive) | 1.12 µM (inactive)
N=C(N)NS(=O)(=O)c1ccc(N/N=C2/CCOC2=O)cc1 | > 100 µM (inactive) | > 100 µM (inactive) | 2.95 µM (inactive) | > 100 µM (inactive) | > 100 µM (inactive) | > 100 µM (inactive) | > 100 µM (inactive) | > 100 µM (inactive) | > 100 µM (inactive) | > 100 µM (inactive) | > 100 µM (inactive) | 63.2 µM (inactive) | > 100 µM (inactive) | > 100 µM (inactive) | > 100 µM (inactive) | 65.5 µM (inactive) | 49.7 µM (inactive) | > 100 µM (inactive) | > 100 µM (inactive) | 

— ChEMBL document CHEMBL1201862, “PubChem BioAssay data set” (2004)
